Source: patent US20160302412A1, “USES OF SALICYLIC ACID” (UNIVERSITY OF TENNESSEE RESEARCH FOUNDATION, priority 2013, published 2016)

System: snap bean seedling diseases (Pythium spp., Rhizoctonia solani, Macrophomina phaseolina, and Fusarium spp.)
Assay: Spring-planted 2013 snap bean field test
Conditions: in vivo

**Q.** Which results are given for O.O.O=C([O-])c1ccccc1O.O=C([O-])c1ccccc1O.[Ca+2] [calcium salicylate, calcium salicylate dihyrate]?
**A.** Overall snap bean yield: highest; Seedling emergence 15 days after planting (May 8): greatest; healthy plant stands: highest
